Assay results published in paper PMC6199744, “Development of Chemical Proteomics for the Folateome and Analysis of the Kinetoplastid Folateome” (ACS Infectious Diseases, 2018).
Read-outs that look alike come from different tables or passages of the source.

How the values were obtained:
Format in all cases: binding
[1] = target: T1, HeLa cell extract proteins (Homo sapiens, UniProt P42356)
T1 construct: endogenous in cells; host or cells: HeLa cell extract

[2] = target: T2, HeLa cell extract proteins (Homo sapiens, UniProt Q9H2U2)
T2 construct: endogenous in cells; host or cells: HeLa cell extract
T2 sequence (Q9H2U2 33-334): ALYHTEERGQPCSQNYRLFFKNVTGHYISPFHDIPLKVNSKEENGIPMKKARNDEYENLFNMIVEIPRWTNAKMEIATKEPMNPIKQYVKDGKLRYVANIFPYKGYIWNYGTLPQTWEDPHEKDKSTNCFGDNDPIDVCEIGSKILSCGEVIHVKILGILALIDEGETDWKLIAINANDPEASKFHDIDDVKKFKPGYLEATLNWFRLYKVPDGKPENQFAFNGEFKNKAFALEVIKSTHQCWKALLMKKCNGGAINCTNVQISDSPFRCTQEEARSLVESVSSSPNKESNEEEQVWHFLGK

[3] = target: T3, HeLa cell extract proteins (Homo sapiens, UniProt P11177)
T3 construct: endogenous in cells; host or cells: HeLa cell extract
T3 sequence (P11177 31-359): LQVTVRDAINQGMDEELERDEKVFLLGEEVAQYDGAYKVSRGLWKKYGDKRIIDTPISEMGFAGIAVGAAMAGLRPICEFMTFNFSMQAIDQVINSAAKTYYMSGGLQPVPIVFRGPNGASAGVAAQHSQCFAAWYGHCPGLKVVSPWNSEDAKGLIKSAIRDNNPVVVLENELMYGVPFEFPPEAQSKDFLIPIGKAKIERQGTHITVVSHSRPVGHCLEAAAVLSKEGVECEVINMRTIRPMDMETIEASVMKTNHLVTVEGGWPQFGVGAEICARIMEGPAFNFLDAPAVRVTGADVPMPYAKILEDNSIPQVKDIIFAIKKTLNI

[4] = target: T4, HeLa cell extract proteins (Homo sapiens, UniProt P13073)
T4 construct: endogenous in cells; host or cells: HeLa cell extract

[5] = target: T5, HeLa cell extract proteins (Homo sapiens, UniProt O43809)
T5 construct: endogenous in cells; host or cells: HeLa cell extract

[6] = target: T6, HeLa cell extract proteins (Homo sapiens, UniProt O60664)
T6 construct: endogenous in cells; host or cells: HeLa cell extract
T6 sequence (O60664 1-434): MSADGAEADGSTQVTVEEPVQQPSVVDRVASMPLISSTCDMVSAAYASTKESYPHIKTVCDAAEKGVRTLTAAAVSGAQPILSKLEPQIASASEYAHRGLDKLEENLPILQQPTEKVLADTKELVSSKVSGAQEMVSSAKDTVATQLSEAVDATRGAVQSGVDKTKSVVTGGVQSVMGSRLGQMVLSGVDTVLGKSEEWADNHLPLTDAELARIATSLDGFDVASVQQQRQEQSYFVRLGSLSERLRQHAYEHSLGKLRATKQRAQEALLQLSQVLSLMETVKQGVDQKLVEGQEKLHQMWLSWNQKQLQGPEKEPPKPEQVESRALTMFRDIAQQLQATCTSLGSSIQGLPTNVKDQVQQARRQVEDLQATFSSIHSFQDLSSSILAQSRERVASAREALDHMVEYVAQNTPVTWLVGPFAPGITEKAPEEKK

[7] = target: T7, HeLa cell extract proteins (Homo sapiens, UniProt P47712)
T7 construct: endogenous in cells; host or cells: HeLa cell extract
T7 sequence (P47712 1-749): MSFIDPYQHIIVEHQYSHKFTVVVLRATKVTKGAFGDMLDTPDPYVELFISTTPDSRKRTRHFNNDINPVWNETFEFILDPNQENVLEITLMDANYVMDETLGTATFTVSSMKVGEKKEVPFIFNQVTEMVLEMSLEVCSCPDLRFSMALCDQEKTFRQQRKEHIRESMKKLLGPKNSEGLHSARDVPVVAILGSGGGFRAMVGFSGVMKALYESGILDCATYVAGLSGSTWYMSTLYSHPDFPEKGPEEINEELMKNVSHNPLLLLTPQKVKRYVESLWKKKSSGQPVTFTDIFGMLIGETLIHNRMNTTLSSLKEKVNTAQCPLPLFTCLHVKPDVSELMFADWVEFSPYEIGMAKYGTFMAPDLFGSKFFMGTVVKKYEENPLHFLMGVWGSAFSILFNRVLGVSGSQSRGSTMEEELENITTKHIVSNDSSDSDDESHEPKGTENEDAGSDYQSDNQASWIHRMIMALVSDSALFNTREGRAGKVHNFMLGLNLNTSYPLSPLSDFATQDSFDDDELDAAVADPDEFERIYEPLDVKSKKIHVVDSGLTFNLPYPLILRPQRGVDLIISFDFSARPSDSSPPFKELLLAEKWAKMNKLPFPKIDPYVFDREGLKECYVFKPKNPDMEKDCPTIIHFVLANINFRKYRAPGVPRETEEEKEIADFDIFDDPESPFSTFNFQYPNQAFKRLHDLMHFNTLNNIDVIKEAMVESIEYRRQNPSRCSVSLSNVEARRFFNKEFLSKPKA

[8] = target: T8, HeLa cell extract proteins (Homo sapiens, UniProt P42704)
T8 construct: endogenous in cells; host or cells: HeLa cell extract

[9] = target: T9, HeLa cell extract proteins (Homo sapiens, UniProt Q9BXR0)
T9 construct: endogenous in cells; host or cells: HeLa cell extract
T9 sequence (Q9BXR0 1-403): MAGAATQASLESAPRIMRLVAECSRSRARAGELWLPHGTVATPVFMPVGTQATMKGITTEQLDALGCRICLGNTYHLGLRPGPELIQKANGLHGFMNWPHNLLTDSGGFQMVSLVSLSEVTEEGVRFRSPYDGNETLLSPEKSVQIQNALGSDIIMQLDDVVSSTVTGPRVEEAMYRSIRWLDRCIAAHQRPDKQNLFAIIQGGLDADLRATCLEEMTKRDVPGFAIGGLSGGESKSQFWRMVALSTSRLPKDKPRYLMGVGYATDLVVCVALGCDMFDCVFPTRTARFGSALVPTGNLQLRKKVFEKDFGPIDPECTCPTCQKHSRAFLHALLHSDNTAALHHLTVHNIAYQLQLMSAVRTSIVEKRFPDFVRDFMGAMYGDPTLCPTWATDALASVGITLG

[10] = HeLa, protein PDHB (ISOFORM 1 OF PYRUVATE DEHYDROGENASE E1 COMPONENT SUBUNIT BETA, MITOCHONDRIAL PRECURSOR)

T5 sequence (O43809 whole entry): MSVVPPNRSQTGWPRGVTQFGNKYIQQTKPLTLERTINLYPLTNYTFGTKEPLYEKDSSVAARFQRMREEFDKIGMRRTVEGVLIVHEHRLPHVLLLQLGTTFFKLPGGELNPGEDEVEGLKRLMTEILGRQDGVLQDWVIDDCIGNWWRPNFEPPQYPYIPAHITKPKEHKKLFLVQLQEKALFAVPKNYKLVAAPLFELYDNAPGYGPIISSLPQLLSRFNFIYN
T4 sequence (P13073 23-169): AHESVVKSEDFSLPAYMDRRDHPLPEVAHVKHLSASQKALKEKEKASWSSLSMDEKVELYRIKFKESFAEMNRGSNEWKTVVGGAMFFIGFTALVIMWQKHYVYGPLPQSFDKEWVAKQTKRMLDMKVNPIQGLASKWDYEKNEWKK
T1 sequence (P42356 whole entry): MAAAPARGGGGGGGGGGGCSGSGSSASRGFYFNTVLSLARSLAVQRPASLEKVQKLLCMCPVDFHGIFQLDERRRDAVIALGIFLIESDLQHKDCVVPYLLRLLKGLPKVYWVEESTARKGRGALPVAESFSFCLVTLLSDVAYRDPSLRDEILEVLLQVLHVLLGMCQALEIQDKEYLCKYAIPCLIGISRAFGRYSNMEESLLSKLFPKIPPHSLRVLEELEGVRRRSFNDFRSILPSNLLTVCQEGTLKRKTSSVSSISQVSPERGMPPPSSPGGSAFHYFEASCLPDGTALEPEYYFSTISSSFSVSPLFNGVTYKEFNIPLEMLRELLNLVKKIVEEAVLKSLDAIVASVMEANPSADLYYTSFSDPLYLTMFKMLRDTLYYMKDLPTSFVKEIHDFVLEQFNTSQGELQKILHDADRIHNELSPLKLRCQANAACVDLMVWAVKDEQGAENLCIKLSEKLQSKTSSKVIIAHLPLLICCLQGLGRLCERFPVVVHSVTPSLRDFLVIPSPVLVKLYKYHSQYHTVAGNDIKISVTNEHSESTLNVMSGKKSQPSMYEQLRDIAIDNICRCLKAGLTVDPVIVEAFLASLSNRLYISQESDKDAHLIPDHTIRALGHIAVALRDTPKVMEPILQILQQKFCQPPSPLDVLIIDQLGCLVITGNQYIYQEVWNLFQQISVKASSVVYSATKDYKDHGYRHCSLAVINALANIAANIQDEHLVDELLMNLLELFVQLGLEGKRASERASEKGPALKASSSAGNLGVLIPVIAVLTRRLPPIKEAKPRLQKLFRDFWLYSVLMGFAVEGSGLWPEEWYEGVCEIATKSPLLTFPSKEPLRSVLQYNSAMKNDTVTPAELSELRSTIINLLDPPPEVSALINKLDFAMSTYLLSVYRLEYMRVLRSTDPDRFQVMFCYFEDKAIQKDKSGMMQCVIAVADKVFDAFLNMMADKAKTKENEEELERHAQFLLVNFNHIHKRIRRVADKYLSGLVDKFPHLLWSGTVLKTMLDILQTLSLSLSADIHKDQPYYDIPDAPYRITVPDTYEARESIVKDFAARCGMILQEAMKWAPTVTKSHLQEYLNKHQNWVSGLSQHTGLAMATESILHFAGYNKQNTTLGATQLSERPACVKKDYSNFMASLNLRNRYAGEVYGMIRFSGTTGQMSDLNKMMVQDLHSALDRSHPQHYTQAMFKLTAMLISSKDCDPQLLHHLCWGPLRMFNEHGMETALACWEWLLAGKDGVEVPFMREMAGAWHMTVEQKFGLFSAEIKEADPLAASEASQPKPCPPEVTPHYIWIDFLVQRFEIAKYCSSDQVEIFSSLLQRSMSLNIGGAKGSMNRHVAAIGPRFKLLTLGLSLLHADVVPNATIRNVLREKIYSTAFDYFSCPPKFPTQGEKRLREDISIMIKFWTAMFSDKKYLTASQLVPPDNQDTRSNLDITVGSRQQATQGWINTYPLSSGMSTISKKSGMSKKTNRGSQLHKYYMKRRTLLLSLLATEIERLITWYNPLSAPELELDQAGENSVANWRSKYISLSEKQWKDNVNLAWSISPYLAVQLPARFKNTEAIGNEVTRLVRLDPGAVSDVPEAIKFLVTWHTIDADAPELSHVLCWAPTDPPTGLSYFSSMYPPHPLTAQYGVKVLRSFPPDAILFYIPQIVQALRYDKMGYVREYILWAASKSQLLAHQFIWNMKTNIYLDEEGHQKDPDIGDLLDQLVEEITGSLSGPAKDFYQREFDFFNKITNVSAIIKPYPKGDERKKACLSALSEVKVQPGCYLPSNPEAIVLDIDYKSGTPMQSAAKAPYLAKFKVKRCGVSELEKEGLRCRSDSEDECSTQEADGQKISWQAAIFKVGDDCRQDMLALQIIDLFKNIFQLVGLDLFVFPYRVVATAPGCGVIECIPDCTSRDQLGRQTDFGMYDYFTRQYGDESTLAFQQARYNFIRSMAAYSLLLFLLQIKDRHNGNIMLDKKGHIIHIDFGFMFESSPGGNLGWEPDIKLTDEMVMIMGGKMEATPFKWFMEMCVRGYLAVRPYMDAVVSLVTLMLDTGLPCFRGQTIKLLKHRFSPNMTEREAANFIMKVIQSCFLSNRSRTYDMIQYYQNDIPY

Structure (SMILES)	fold changes relative to vehicle control ([1]; captured protein PI4KA, HeLa)	fold changes relative to vehicle control ([2]; protein PPA2, HeLa)	fold changes relative to vehicle control ([3]; protein PDHB, HeLa)	fold changes relative to vehicle control ([4]; HeLa, protein COX4I1)	fold changes relative to vehicle control ([5]; protein NUDT21, HeLa)	fold changes relative to vehicle control ([6]; protein M6PRBP1, HeLa)	fold changes relative to vehicle control ([7]; protein PLA2G4A, HeLa)	fold changes relative to vehicle control ([8]; protein LRPPRC, HeLa)	fold changes relative to vehicle control ([9]; protein QTRT1, HeLa)	fold changes relative to vehicle control ([1]; protein PI4KA, HeLa)	fold changes relative to vehicle control ([2]; HeLa, protein PPA2)	fold changes relative to vehicle control ([7]; HeLa, protein PLA2G4A)	fold changes relative to vehicle control ([8]; HeLa, protein LRPPRC)	further results
Nc1nc2cccc(-c3ccccc3)c2n1Cc1ccc(Cl)c(Cl)c1 [compound 3]	0.77	0.97	0.99	1	0.99	0.94	0.91	0.74	1.03	–	–	–	–	–
CCCCCCOc1ccc(Cc2cnc(N)nc2N)cc1 [compound 1]	0.71	1.04	0.97	1.03	1.16	1.23	1	0.92	0.51	–	–	–	–	–
NCCCNc1ccc(C(=O)NC(CCC(=O)O)C(=O)O)cc1 (stereo not drawn) [compound 7]	–	–	–	1.17	0.98	0.93	–	–	0.98	1.02	1.02	0.88	1.21	fold changes relative to vehicle control [3, 10]: 0.92
CCCCCCOc1cccc(Cc2cnc(N)nc2N)c1 [compound 2]	1.14	1.59	0.38	1.21	1.28	1.68	1.72	1.33	1.05	–	–	–	–	–
NCCOCCOCC(=O)Nc1nc2ncc(CNc3ccc(C(=O)NC(CCC(=O)O)C(=O)O)cc3)nc2c(=O)[nH]1 (stereo not drawn) [compound 6]	–	–	–	1.04	1	1.27	–	–	0.28	0.94	1.24	1.18	1.22	fold changes relative to vehicle control [3, 10]: 0.87
Nc1nc2[nH]cc(CCc3ccc(C(=O)N[C@@H](CCC(=O)O)C(=O)O)cc3)c2c(=O)[nH]1 [PTX, pemetrexed]	–	–	–	–	–	–	–	–	–	–	–	–	–	fold changes relative to vehicle control [1]: 0.73; fold changes relative to vehicle control [2]: 1.05; fold changes relative to vehicle control [3]: 0.92; fold changes relative to vehicle control [4]: 0.98; fold changes relative to vehicle control [5]: 0.97; fold changes relative to vehicle control [6]: 1.06; fold changes relative to vehicle control [7]: 1.13; fold changes relative to vehicle control [8]: 1.15; fold changes relative to vehicle control [9]: 0.84
Nc1nc2c(c(=O)[nH]1)N(C=O)C(CNc1ccc(C(=O)N[C@@H](CCC(=O)O)C(=O)O)cc1)CN2 (stereo partly drawn) [LEU, leucovorin]	–	–	–	0.9	1.11	1	–	–	0.96	0.82	1.16	0.94	0.92	fold changes relative to vehicle control ([3]; HeLa, protein PDHB (ISOFORM 1 OF PYRUVATE DEHYDROGENASE E1 COMPONENT SUBUNIT BETA, MIT[…])): 1.01
